Values of other authors in US20190185438A1 (Tonix Pharmaceuticals Holding Corp., priority 2016, published 2019).
Like-named read-outs stand apart in the source and are kept apart here. Marks after values point to notes of the source that are not given here.

Experiments:
[1] = tested on: patients with fibromyalgia; conditions: 8 weeks
[2] = tested on: patients with fibromyalgia
[3] = 4 mg/day, week 14, 10-point scale, p <0.001

CCOc1ccccc1O[C@@H](c1ccccc1)[C@@H]1CNCCO1 [Esreboxetine, (2S)-2-[(S)-(2-ethoxyphenoxy)-phenylmethyl]morpholine]
Tolerability [1]: generally well-tolerated
Pain scores compared to placebo ([1]; 2 mg/day raised to 8 mg/day or maximum tolerated dose): statistically significant reductions
Patients discontinued due to adverse events ([1]; placebo 2.3%): 8.2%
GFI score compared to placebo ([2]; 4 mg/day and 8 mg/day, 14 weeks, P=0.001): significant improvement
GFI score, treatment difference [2, 3]: −0.64* (10-point scale)
Pain score, treatment difference [2, 3]: −0.74* (10-point scale)
FIQ score, treatment difference ([2]; 4 mg/day, week 14, 100-point scale, p <0.001): −7.12* (100-point
PGIC, much improved or very much improved ([2]; 4 mg/day, week 14, p 0.002): 41.7%**
Tolerability ([2]; 14 weeks): generally well tolerated
PGIC score compared to placebo ([2]; all doses (4, 8, 10 mg/day), 14 weeks, P≤0.007): significant improvement
FIQ score compared to placebo ([2]; all doses (4, 8, 10 mg/day), 14 weeks, P≤0.023): significant improvement
Pain score compared to placebo ([2]; all doses (4, 8, 10 mg/day), 14 weeks, P≤0.025): significant improvement
